For one experiment, the target named is T1, 5-HT2A (Rattus norvegicus, UniProt P14842).
T1 construct: Cerebral frontal cortex was homogenized in 10 volumes of ice cold 0.32 M sucrose; from tissue; host or cells: rat cerebral frontal cortex membranes
In words: 5HT2A Radioligand Receptor Binding Assay ([3H]-Ketanserin, cerebral frontal cortex membranes). Details: species or system Rats. The following applies: 0.5 nM [3H]-Ketanserin. On the procedure:
Rats (male Sprague-Dawley, 200-250 g) were used. Cerebral frontal cortex was homogenized in 10 volumes of ice cold 0.32 M sucrose in 5 mM Tris-HCl ([…]) buffer. After centrifugation of the homogenate (1,000 x g for 10 min) the supernatant was then recentrifuged at 48,000x g for 15 min.The resulting pellet was gently homogenized in an equal volume of 50mM Tris-HCl buffer (pH 7.4) and incubated at 37° C for 10 minutes. Membranes were then collected by centrifugation as above described and finally resuspended in 10 volumes of 50mM Tris-HCl buffer (pH 7.4).
For displacement experiments membranes (980 µl) were diluted in 50 mM Tris-HCl buffer (pH 7.4) to a final concentration of 1:100 (w/v); the tissue suspension was then incubated at 37 °C for 10 min in a final volume of 1 ml in the presence of 0.5 nM [^3H]-Ketanserin. Non specific binding was determined by incubating similar samples with unlabelled methysergide (100 µM). […] The filters were washed three times with 2 ml ice-cold Tris-HCl buffer and placed in polyethylene vials, then 4 ml of Filter Count scintillation cocktail (Packard) were added. The radioactivity present was counted by liquid scintillation spectrometry.
The affinity values (IC50) for the compounds were obtained by a non linear least squares regression analysis on the basis of a one binding site model.

The target in a further experiment is T2, CHO/5-HT1A cells (Homo sapiens, UniProt P08908).
T2 construct: expressed in transfected cells; host or cells: CHO/5-HT1A cells
T2 sequence (P08908 1-422): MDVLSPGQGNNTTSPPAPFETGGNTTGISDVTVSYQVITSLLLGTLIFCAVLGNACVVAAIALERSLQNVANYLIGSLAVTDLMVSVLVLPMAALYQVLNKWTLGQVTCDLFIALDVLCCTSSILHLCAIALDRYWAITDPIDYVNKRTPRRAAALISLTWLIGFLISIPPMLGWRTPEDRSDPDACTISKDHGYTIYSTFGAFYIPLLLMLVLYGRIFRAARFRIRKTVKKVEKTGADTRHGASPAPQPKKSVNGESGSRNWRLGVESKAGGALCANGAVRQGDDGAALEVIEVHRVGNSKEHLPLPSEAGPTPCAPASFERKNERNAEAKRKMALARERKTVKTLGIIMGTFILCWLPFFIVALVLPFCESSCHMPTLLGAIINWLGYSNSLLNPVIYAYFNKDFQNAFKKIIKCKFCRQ
In words: 5-HT1A Functional assay (cAMP). It counts as cell-based. Particulars: 10 µM compound; % inhibition of the cAMP accumulation induced by 10 µM FSK; read-out: 5-HT1A cAMP % inhib. The procedure: CHO/5-HT1A cells were random seeded at a density of about 200,000/well in 24 well plates the day prior to the experiment. On the day of the experiment, cells were pretreated for 15 min at 37 °C with 500 µM isobuthylmethylxantine (IBMX) dissolved in culture medium without serum. Wells were then divided in different groups in duplicate as follows: control, 10 µM FSK, 10 µM FSK + 1 µM 5-HT as positive standard and 10 µM FSK + 10 µM of the different compound under evaluation. Sample solutions were added and incubated for additional 15 min at 37 °C. After incubation, medium was aspirated and the reaction stopped by adding 200 µl of lysis buffer. Plates were shaken for 5 min, then the lysate was removed and samples were stored at 4 °C until the day of the assay. For the cAMP evaluation, samples were properly diluted and the cAMP content was measured by an enzymeimmunoassay system.
On the technique in general: cAMP levels reflect the balance of adenylyl cyclase and phosphodiesterase activity.

Another experiment concerns the target T3, D4 human receptors (Homo sapiens, UniProt P21917).
T3 construct: expressed in transfected cells; host or cells: CHO cells
T3 sequence (P21917 1-419): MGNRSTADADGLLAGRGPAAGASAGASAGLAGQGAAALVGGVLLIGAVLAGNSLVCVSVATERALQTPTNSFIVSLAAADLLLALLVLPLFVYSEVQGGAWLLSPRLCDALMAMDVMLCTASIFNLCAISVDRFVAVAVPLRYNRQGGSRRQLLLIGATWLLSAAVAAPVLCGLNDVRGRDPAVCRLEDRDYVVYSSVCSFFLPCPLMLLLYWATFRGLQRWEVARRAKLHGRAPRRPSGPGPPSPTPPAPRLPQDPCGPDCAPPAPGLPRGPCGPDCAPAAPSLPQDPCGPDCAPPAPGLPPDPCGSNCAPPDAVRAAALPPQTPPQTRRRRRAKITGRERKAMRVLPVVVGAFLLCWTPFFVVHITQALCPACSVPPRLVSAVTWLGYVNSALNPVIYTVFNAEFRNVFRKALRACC
In words: D4 Radioligand Receptor Binding Assay ([3H] YM-09151-2, CHO cell membranes). Particulars: compound at 10^-7 M, singlicate; [3H] YM-09151-2 0.15-0.25 nM; read-out: D4 receptor binding assay % inhib. (10^-7 M).

A further experiment has as its target T4, 5-HT1A human receptors (Homo sapiens, UniProt P08908).
T4 construct: expressed in transfected cells; host or cells: CHO cells
T4 sequence (P08908 1-422): T2 sequence (P08908 1-422)
As to the kind of experiment: 5-HT1A Radioligand Receptor Binding Assay ([3H]-8-OH-DPAT, CHO cell membranes). Particulars: for pIC50: [3H]-8-OH-DPAT displacement, CHO membranes, read-out: 5-HT1A receptor binding IC50; for inhibition at 0.1 µM: compound at 10^-7 M, singlicate, [3H]-8-OH-DPAT 0.6-0.7 nM, read-out: 5-HT1A receptor binding assay % inhib. (10^-7 M).

pIC50: −log10 of the molar value.

The pIC50 is the negative decadic logarithm of the IC50, by convention in mol/L.

T1 sequence (P14842 whole entry): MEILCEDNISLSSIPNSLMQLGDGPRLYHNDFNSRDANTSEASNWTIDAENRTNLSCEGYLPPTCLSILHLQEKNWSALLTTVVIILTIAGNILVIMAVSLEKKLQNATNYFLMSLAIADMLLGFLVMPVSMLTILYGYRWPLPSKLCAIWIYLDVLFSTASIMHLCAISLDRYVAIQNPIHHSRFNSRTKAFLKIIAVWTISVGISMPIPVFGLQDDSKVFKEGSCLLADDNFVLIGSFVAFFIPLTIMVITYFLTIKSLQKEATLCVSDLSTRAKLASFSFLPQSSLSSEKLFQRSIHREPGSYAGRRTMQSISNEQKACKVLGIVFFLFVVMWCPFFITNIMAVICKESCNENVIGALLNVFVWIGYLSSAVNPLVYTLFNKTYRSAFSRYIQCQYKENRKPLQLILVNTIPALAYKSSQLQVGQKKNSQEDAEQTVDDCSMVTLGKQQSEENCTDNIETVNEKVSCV

In the case of `COCCn1c(=O)n(CCCCN2CCN(c3cccc(C(F)(F)F)c3)CC2)c2ccccc21` [compound 9], the figures for the pIC50 at 5-HT2A and on 5-HT1A human receptors were 7.80 and 8.00, respectively. In addition, the inhibition at 10 µM on CHO/5-HT1A cells turned out to be 48%. For the same molecule, the inhibition at 0.1 µM at D4 human receptors is 32%; on 5-HT1A human receptors, 93%.
Taken in the same sequence, the figures for `Cc1cccc(N2CCN(CCCCn3c(=O)n(CCO)c4ccccc43)CC2)c1C` [compound 73] were 9.05, 7.89, 45%, 58% and 91%.
Taken in the same sequence, the figures for `CCNC(=O)OCCn1c(=O)n(CCCCN2CCN(c3cccc(C(F)(F)F)c3)CC2)c2ccccc21` [compound 83] were 7.37, 7.82, 64%, 39% and 89%.
As to `COCCn1c(=O)n(CCN2CCN(c3cccc(C(F)(F)F)c3)CC2)c2ccccc21` [compound 168], the pIC50 on 5-HT2A is 7.34; at 5-HT1A human receptors, 8.30. On CHO/5-HT1A cells, the inhibition at 10 µM was found to be 71%.
Regarding `COCCn1c(=O)n(CCN2CCN(c3cccc(C)c3C)CC2)c2ccccc21` [compound 177], on 5-HT2A, the pIC50 was 8.11. In addition, the inhibition at 10 µM at CHO/5-HT1A cells was 76%. Further, on 5-HT1A human receptors, the pIC50 is 8.48 and the inhibition at 0.1 µM is 98%.
Consider `O=c1n(CCO)c2ccccc2n1CCN1CCN(c2cccc(Cl)c2)CC1` [compound 183], for which the pIC50 is 7.57 at 5-HT2A and 8.14 at 5-HT1A human receptors. Moreover, the inhibition at 10 µM on CHO/5-HT1A cells worked out at 66%. The inhibition at 0.1 µM came out at 62% on D4 human receptors and 96% on 5-HT1A human receptors.
Turning to `CCNC(=O)OCCn1c(=O)n(CCN2CCN(c3cccc(C(F)(F)F)c3)CC2)c2ccccc21` [compound 206], the values for the pIC50 at 5-HT2A and at 5-HT1A human receptors were 7.77 and 8.68, respectively. Moreover, the inhibition at 10 µM at CHO/5-HT1A cells stood at 80%.
Turning to `Cc1cccc(N2CCN(CCn3c(=O)n(CCNS(C)(=O)=O)c4ccccc43)CC2)c1C` [compound 254], the pIC50 at 5-HT2A was 7.19; on 5-HT1A human receptors, 8.13. Also, the inhibition at 10 µM on CHO/5-HT1A cells was 66%. Besides, the inhibition at 0.1 µM came out at 34% at D4 human receptors and 85% on 5-HT1A human receptors.
On to `O=c1n(C/C=C\CN2CC=C(c3ccccc3)CC2)c2ccccc2n1CCO` [compound 370], for which the inhibition at 10 µM on CHO/5-HT1A cells is 52%. Moreover, the inhibition at 0.1 µM is 60% at D4 human receptors and 93% at 5-HT1A human receptors.
On to `CCNC(=O)OCCn1c(=O)n(CC=CCN2CC=C(c3ccccc3)CC2)c2ccccc21` [compound 404], for which the inhibition at 10 µM on CHO/5-HT1A cells is 60%. Further, the inhibition at 0.1 µM worked out at 34% at D4 human receptors and 95% at 5-HT1A human receptors.
Taken in the same sequence, the figures for `CCNC(=O)OCCn1c(=O)n(C/C=C/CN2CCN(c3cccc(Cl)c3)CC2)c2ccccc21` [compound 416] were 77%, 39% and 96%.
Turning to `CC(=O)NCCn1c(=O)n(CCN2CCN(c3cccc(C)c3C)CC2)c2ccccc21` [compound 446], the inhibition at 10 µM on CHO/5-HT1A cells amounted to 81%. Besides, the inhibition at 0.1 µM on D4 human receptors was found to be 31%. At 5-HT1A human receptors, the pIC50 was 8.14 and the inhibition at 0.1 µM came out at 92%.
Consider `CS(=O)(=O)NCCn1c(=O)n(C/C=C\CN2CC=C(c3ccccc3)CC2)c2ccccc21` [compound 504], for which the inhibition at 10 µM on CHO/5-HT1A cells turned out to be 50%. The results for the inhibition at 0.1 µM on D4 human receptors and at 5-HT1A human receptors were 34% and 93%, respectively.

For the origin of these results see patent publication EP1322622B1, “NEW N, N'-DISUBSTITUTED BENZIMIDAZOLONE DERIVATIVES WITH AFFINITY AT THE SEROTONIN AND DOPAMINE RECEPTORS” (Sprout Pharmaceuticals, Inc., priority 2000, dated 2002).
